Measured values: patent US4159373A, “7-Acyl-3-(sulfonic acid and sulfamoyl substituted tetrazolyl thiomethyl) cephalosporins” (SmithKline Corporation, priority 1978, dated 1979)
Values after ≈ are worked out from the molar mass of the structure shown. Like-named read-outs stand apart in the source and are kept apart here.

Assays:
Staph. aureus 671 = assay: MIC in vitro; format: cell-based
Psuedo. sp. HH 63 = assay: MIC in vitro; format: cell-based, Pseudo. aeruginosa
Description: (§1) The compounds of Formula I have exceptional antibacterial activity against both Gram-positive and Gram-negative organisms. Minimum inhibitory concentrations (MIC's) ranged from 0.2 to <200 μg./ml. in in vitro testing.

Kleb. pneumo. SK 1200 = assay: MIC in vitro; format: cell-based, Kleb. pneumoniae; details: Klebsiella pneumoniae
Description: as §1

Kleb. pneumo. SK 4200 = assay: MIC in vitro; format: cell-based, Kleb. pneumoniae; details: Klebsiella pneumoniae
Description: as §1

Staph. aureus 674 = assay: MIC in vitro; format: cell-based
E. coli 12140 = assay: In vivo mouse protection, E. coli 12140; details: Escherichia coli, 12140, sc, s.c.
S. aureus HH 127 = assay: MIC in vitro; format: cell-based; details: Staphylococcus aureus
Description: as §1

Proteus morgani 179 = assay: MIC in vitro; format: cell-based
Description: as §1

Strep. Faecalis HH 34358 = assay: MIC in vitro; format: cell-based; details: Enterococcus faecalis
Description: as §1

E. coli SK 12140 = assay: MIC in vitro; format: cell-based
Description: as §1

Pseudo. aeruginosa 647 = assay: MIC in vitro; format: cell-based
Kleb. pneumoniae 982 = assay: MIC in vitro; format: cell-based
Kleb. pneumo. 4200 = assay: In vivo mouse protection, Kleb. pneumo. 4200; details: sc
Serra. marc ATCC 13880 = assay: MIC in vitro; format: cell-based, Serratia marcescens; details: Serratia marcescens
Description: as §1

[1] = tested on: Entero. aerog. ATCC 13048; assay: MIC in vitro; format: cell-based, Enterobacter aerogenes; details: Klebsiella aerogenes
Description: as §1

Enterobacter cloacae 921 = assay: MIC in vitro; format: cell-based
E. coli 804 = assay: MIC in vitro; format: cell-based
Proteus mirabilis 444 = assay: MIC in vitro; format: cell-based
S. aureus SK 23390 = assay: MIC in vitro; format: cell-based; details: Staphylococcus aureus, SK23390, Table 1; S. aureus SK 23390; read-out: MIC in vitro
Description: as §1

E. coli HH 33779 = assay: MIC in vitro; format: cell-based; details: Escherichia coli, HH33779, Table 1; E. coli HH 33779; read-out: MIC in vitro
Description: as §1

Salmonella ATCC 12176 = assay: MIC in vitro; format: cell-based; details: Salmonella, ATCC12176, Table 1, read-out: MIC in vitro
Description: as §1

[2] = Example 55 table, Kleb. pneumoniae SK&F 1200, read-out: MIC
[3] = Example 55 table, Kleb. pneumoniae SK&F 4200, read-out: MIC
[4] = Staphylococcus aureus, 674, Example 55 table
[5] = Example 55, E. coli SKF 12140, read-out: ED50
[6] = Example 55 table, Staph. aureus HH127, read-out: MIC
[7] = Example 55 table, read-out: MIC
[8] = Example 55 table, Strep. faecalis HH 34358, read-out: MIC
[9] = Example 55, s.c., K. pneumo. SK&F 4200, read-out: ED50
[10] = ATCC13880, Example 55 table, Serratia marcescens ATCC 13880, read-out: MIC
[11] = ATCC13048, Example 55 table, Enterobacter aerogenes 13048, read-out: MIC
[12] = Enterobacter cloacae, 921, Example 55 table
[13] = Example 54 table, read-out: MIC

Structure (SMILES): NCc1cccc(CC(=O)NC2C(=O)N3C(C(=O)O)=C(CSc4nnnn4CS(=O)(=O)O)CSC23)c1 (centres unmarked) [Example 55, 7-(3-Aminomethylphenylacetamido)-3-(1-sulfomethyltetrazol-5-ylthiomethyl)-3-cephem-4-carboxylic acid]
- MIC (Staph. aureus 671; Staphylococcus aureus, Example 55 table): 6.3 µg/mL (≈ 11.3 µM)
- MIC (Psuedo. sp. HH 63; Pseudomonas aeruginosa, Example 55 table, Pseudo. aeruginosa HH63, read-out: MIC): > 100 µg/mL
- MIC (Kleb. pneumo. SK 1200; [2]): ≤ 0.1 µg/mL
- MIC (Kleb. pneumo. SK 4200; [3]): 0.2 µg/mL (≈ 0.36 µM)
- MIC (Staph. aureus 674; [4]): 1.6 µg/mL (≈ 2.88 µM)
- ED50 (E. coli 12140; [5]): 1.82 mg/kg
- MIC (S. aureus HH 127; [6]): 1.6 µg/mL (≈ 2.88 µM)
- MIC (Proteus morgani 179; [7]): > 100 µg/mL
- MIC (Strep. Faecalis HH 34358; [8]): 100 µg/mL (≈ 180 µM)
- MIC (E. coli SK 12140; Escherichia coli, SK12140, Example 55 table, E. coli SK&F 12140, read-out: MIC): 1.6 µg/mL (≈ 2.88 µM)
- MIC (Pseudo. aeruginosa 647; Pseudomonas aeruginosa, Example 55 table, read-out: MIC): > 100 µg/mL
- MIC (Kleb. pneumoniae 982; Klebsiella pneumoniae, Example 55 table, read-out: MIC): > 100 µg/mL
- ED50 (Kleb. pneumo. 4200; [9]): < 0.19 mg/kg
- MIC (Serra. marc ATCC 13880; [10]): > 100 µg/mL
- MIC [1, 11]: 50 µg/mL (≈ 90 µM)
- MIC (Enterobacter cloacae 921; [12]): 25 µg/mL (≈ 45 µM)
- MIC (E. coli 804; Escherichia coli, Example 55 table, read-out: MIC): > 100 µg/mL
- MIC (Proteus mirabilis 444; [7]): 0.4 µg/mL (≈ 0.72 µM)

Structure (SMILES): Cc1nnc(SCC2=C(C(=O)O)N3C(=O)[C@@H](NC(=O)Cn4cnnn4)[C@H]3SC2)s1 [XIII, Cefazolin, reference compound]
- MIC (Staph. aureus 671; Staphylococcus aureus, 671, Example 55 table): 12.5 µg/mL (≈ 27.5 µM)
- MIC (Staph. aureus 671; Staphylococcus aureus, Example 54 table): 0.8 µg/mL (≈ 1.76 µM)
- MIC (Psuedo. sp. HH 63; Example 55 table, Pseudo. aeruginosa HH63): > 100 µg/mL
- MIC (Psuedo. sp. HH 63; Pseudomonas aeruginosa, Example 54 table, Pseudo. aeruginosa HH 63, read-out: MIC): > 100 µg/mL
- MIC (Psuedo. sp. HH 63; Pseudomonas aeruginosa, Table 1, Psuedo. sp. HH 63, read-out: MIC in vitro): > 200 µg/mL
- MIC (Kleb. pneumo. SK 1200; Example 54 table, Kleb. pneumoniae SK&F 1200, read-out: MIC): 0.4 µg/mL (≈ 0.88 µM)
- MIC (Kleb. pneumo. SK 1200; [2]): 0.8 µg/mL (≈ 1.76 µM)
- MIC (Kleb. pneumo. SK 1200; Table 1, Kleb. pneumo. SK 1200, read-out: MIC in vitro): 0.8 µg/mL (≈ 1.76 µM)
- MIC (Kleb. pneumo. SK 4200; Example 54 table, Kleb. pneumoniae SK&F 4200, read-out: MIC): 3.1 µg/mL (≈ 6.82 µM)
- MIC (Kleb. pneumo. SK 4200; [3]): 1.6 µg/mL (≈ 3.52 µM)
- MIC (Kleb. pneumo. SK 4200; Table 1, Kleb. pneumo. SK 4200, read-out: MIC in vitro): 0.8 µg/mL (≈ 1.76 µM)
- MIC (Staph. aureus 674; Staphylococcus aureus, 674, Example 54 table): 0.4 µg/mL (≈ 0.88 µM)
- MIC (Staph. aureus 674; [4]): 0.2 µg/mL (≈ 0.44 µM)
- ED50 (E. coli 12140; Example 54, E. coli SKF 12140, read-out: ED50): 4.4 mg/kg
- ED50 (E. coli 12140; [5]): 3.12 mg/kg
- ED50 (E. coli 12140; Table 2, E. coli 12140, read-out: ED50 in vivo): 4 mg/kg
- MIC (S. aureus HH 127; HH127, Example 54 table, Staph. aureus HH 127): 0.8 µg/mL (≈ 1.76 µM)
- MIC (S. aureus HH 127; HH127, Table 1, S. aureus HH 127, read-out: MIC in vitro): 0.4 µg/mL (≈ 0.88 µM)
- MIC (S. aureus HH 127; [6]): 0.4 µg/mL (≈ 0.88 µM)
- MIC (S. aureus SK 23390): 0.2 µg/mL (≈ 0.44 µM)
- MIC (E. coli HH 33779): 0.8 µg/mL (≈ 1.76 µM)
- MIC (Proteus morgani 179; [13]): > 100 µg/mL
- MIC (Proteus morgani 179; [7]): > 100 µg/mL
- MIC (Proteus morgani 179; Table 1, read-out: MIC in vitro): 200 µg/mL (≈ 440 µM)
- MIC (Strep. Faecalis HH 34358; Example 54 table, Strep. faecalis HH 34358, read-out: MIC): 25 µg/mL (≈ 55 µM)
- MIC (Strep. Faecalis HH 34358; [8]): 12.5 µg/mL (≈ 27.5 µM)
- MIC (Strep. Faecalis HH 34358; Table 1, Strep. Faecalis HH 34358, read-out: MIC in vitro): 6.3 µg/mL (≈ 13.9 µM)
- MIC (Salmonella ATCC 12176): 0.8 µg/mL (≈ 1.76 µM)
- MIC (E. coli SK 12140; Escherichia coli, SK12140, Example 54 table, E. coli SK&F 12140, read-out: MIC): 0.8 µg/mL (≈ 1.76 µM)
- MIC (E. coli SK 12140; Escherichia coli, SK12140, Table 1, E. coli SK 12140, read-out: MIC in vitro): 0.8 µg/mL (≈ 1.76 µM)
- MIC (E. coli SK 12140; Example 55 table, E. coli SK&F 12140): 0.8 µg/mL (≈ 1.76 µM)
- MIC (Pseudo. aeruginosa 647; Example 55 table): > 100 µg/mL
- MIC (Pseudo. aeruginosa 647; Pseudomonas aeruginosa, Example 54 table, read-out: MIC): > 100 µg/mL
- MIC (Kleb. pneumoniae 982; Example 55 table): > 100 µg/mL
- MIC (Kleb. pneumoniae 982; Klebsiella pneumoniae, Example 54 table, read-out: MIC): > 100 µg/mL
- ED50 (Kleb. pneumo. 4200; Example 54, s.c., K. pneumo. SKF 4200, read-out: ED50): 0.7 mg/kg
- ED50 (Kleb. pneumo. 4200; [9]): 8.7 mg/kg
- ED50 (Kleb. pneumo. 4200; Table 2, Kleb. pneumo. 4200, s.c., read-out: ED50 in vivo): 6.25 mg/kg
- MIC (Serra. marc ATCC 13880; ATCC13880, Example 54 table, Serratia marcescens ATCC 13880, read-out: MIC): > 100 µg/mL
- MIC (Serra. marc ATCC 13880; [10]): > 100 µg/mL
- MIC (Serra. marc ATCC 13880; ATCC13880, Table 1, Serra. marc ATCC 13880, read-out: MIC in vitro): 200 µg/mL (≈ 440 µM)
- MIC ([1]; ATCC13048, Example 54 table, Enterobacter aerogenes 13048, read-out: MIC): 3.1 µg/mL (≈ 6.82 µM)
- MIC [1, 11]: 3.1 µg/mL (≈ 6.82 µM)
- MIC ([1]; ATCC13048, Table 1, Entero. aerog. ATCC 13048, read-out: MIC in vitro): 1.6 µg/mL (≈ 3.52 µM)
- MIC (Enterobacter cloacae 921; Enterobacter cloacae, 921, Example 54 table): 25 µg/mL (≈ 55 µM)
- MIC (Enterobacter cloacae 921; [12]): 6.3 µg/mL (≈ 13.9 µM)
- MIC (E. coli 804; Escherichia coli, Example 54 table, read-out: MIC): 100 µg/mL (≈ 220 µM)
- MIC (E. coli 804; Example 55 table): 100 µg/mL (≈ 220 µM)
- MIC (Proteus mirabilis 444; [13]): 3.1 µg/mL (≈ 6.82 µM)
- MIC (Proteus mirabilis 444; Example 55 table): 3.1 µg/mL (≈ 6.82 µM)
